The test system of this assay is MMTV-PyMT tumor transplants. Description: Orthotopic transplant of MMTV-PyMT tumor pieces into wild-type FVBN or athymic nude Foxn1nu mice. The conditions noted are these: treated for 20 days. The format is in vivo, mouse. On the procedure:
Two transplant experiments were performed where tumors were extracted from MMTV-PyMT mice and 50-100 mm^3 pieces were inserted into the 4th mammary fat pad of either wild-type FVBN mice or athymic nude Foxn1nu mice. Five days after implant mice were randomly placed into treatment groups and treated as indicated.

SMILES strings stand for the structures.

As to `CC(=O)O[C@H]1C(=O)[C@@]2(C)[C@H]([C@H](OC(=O)c3ccccc3)[C@]3(O)C[C@H](OC(=O)[C@H](O)[C@@H](NC(=O)c4ccccc4)c4ccccc4)C(C)=C1C3(C)C)[C@]1(OC(C)=O)CO[C@@H]1C[C@@H]2O` [paclitaxel, 5β,20-epoxy-1,2α,4,7β,10β,13α-hexa-hydroxytax-11-en-9-one 4,10-diacetate 2-benzoate 13-ester with (2R,3S)—N-benzoyl-3-phenylisoserine, reference compound], the “transplant growth in T cell deficient athymic nude (Foxn1nu) recipient mice” value is recorded as “efficacious”.

(Values after patent publication US20200268720A1, “METHODS OF USE OF A CLASS IIA HDAC INHIBITOR” (GlaxoSmithKline LLC, priority 2016, published 2020).)
